Consider 13 compounds from paper PMC10339762, “Fragment-based drug discovery of small molecule ligands for the human chemokine CCL28” (SLAS discovery : advancing life sciences R & D, 2023).

Format in all cases: binding
Assay [1] concerns the target T1, CCL28(4-108) (Homo sapiens, UniProt Q9NRJ3).
T1 construct: Uniformly ^15N-labeled CCL28(1-108) and CCL28(4-108) proteins were expressed using a previously described SUMO fusion construct; Smt (SUMO) fusion tag (N, cleaved yes); made in house; host or cells: E. coli BL21(DE3)
T1 sequence (Q9NRJ3 23-127): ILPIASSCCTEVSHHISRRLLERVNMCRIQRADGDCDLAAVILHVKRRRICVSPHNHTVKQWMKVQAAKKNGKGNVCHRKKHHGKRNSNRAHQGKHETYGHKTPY
Description: Dual-fragment NMR titration. Conditions: one fragment titrated 0–3 mM into 3 mM of the other, 50 μM CCL28.

The target in assay [2] is T1, CCL28(4-108). Description: Single-fragment 1H-15N HSQC titration, chemical shift mapping. Conditions: 6 mM fragment, 50 μM CCL28(4-108).
Assay [3] has as its target T2, CCL28(1-108) (Homo sapiens, UniProt Q9NRJ3).
T2 construct: Uniformly ^15N-labeled CCL28(1-108) and CCL28(4-108) proteins were expressed using a previously described SUMO fusion construct; Smt (SUMO) fusion tag (N, cleaved yes); made in house; host or cells: E. coli BL21(DE3)
T2 sequence (Q9NRJ3 20-127): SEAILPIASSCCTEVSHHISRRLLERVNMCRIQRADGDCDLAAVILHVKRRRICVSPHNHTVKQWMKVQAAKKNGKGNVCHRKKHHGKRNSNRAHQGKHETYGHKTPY
Description: 1H-15N HSQC NMR titration of repurchased fragment hits (hit validation). Conditions: for Kd: 50 μM CCL28(1-108), fragment 0–6 mM, HSQC at 25 °C, estimated by nonlinear fitting, read-out: Kd (fitting of titration-derived chemical shift perturbation data). The protocol:
NMR samples for fragment screening and titration experiments were prepared using a liquid handling robot designed for and dedicated to sample mixing and loading of NMR sample tubes as previously described, except that 1.7 mm sample tubes were used with sample volumes of 60 μL. All ^1H,^15N HSQC spectra were acquired at 25 °C and 600 MHz on a Bruker Avance III HD NMR spectrometer equipped with a 1.7 mm TCI CryoProbe and SampleJet sample handling robot. NMR data processing was performed in an automated manner, as previously described. Custom Python scripts were used to automate the movement of NMRPipe processing scripts to each experiment directory, run the NMRPipe processing scripts, transfer transformed spectra to a processed data directory, compute HSQC difference spectra, generate HSQC overlay and HSQC difference contour plot files for each sample, perform principal component analysis calculations and K-means cluster analysis on all spectra acquired in each round of fragment screening.
Fragment screening was conducted against 50 μM ^15N-CCL28(1-108) in an iterative multiplexed manner as previously described, except that each chemical fragment was present at a concentration of 500 μM instead of 1mM. A collection of 2,678 fragments comprised of the Core 1000 (Maybridge), Zenobia 1 (Zenobia), L5700 (Targetmol), and 3D Shape Diverse (Enamine) libraries were arranged into 12-plex groups for the first iteration. A consistent buffer was used across all NMR samples (50 mM dMES, 150 mM NaCl, 3% v/v DMSO, 0.02% w/v sodium azide, 5% v/v deuterium oxide) for 12-plex, 3-plex, and single compound screening rounds. Principal component analysis (PCA) and difference intensity analysis (DIA) comparisons of a reference (DMSO only) spectrum with each screening spectrum were used to identify potential hits, which were then verified by manual inspection of HSQC overlays and HSQC difference spectra, as previously described. Candidate hits were repurchased and subjected to ^1H-^15N HSQC titration with 50 μM CCL28(1-108) at concentrations ranging from 0–6 mM. Repurchased compound identities were confirmed via 1D ^1H NMR, and purity was determined to be at least 90% via natural abundance ^1H-^13C HSQC. For a subset of validated hits, CCL28 binding was measured in combination with a second fragment, each of which was titrated to a maximum concentration of 3 mM.
Because hits were identified in the primary screen from 2D NMR spectra acquired at a single fragment concentration, evaluating each candidate in terms of CCL28 binding affinity and specificity was essential. HSQC titrations up to a final concentration of 6 mM were performed using repurchased material for each candidate hit. Using the same chemical shift mapping approach employed for sTyr binding (Fig. 1B & C), titration-derived chemical shift perturbation data was used to ascertain and visualize the residues most affected by the addition of each compound. Fragment binding affinities were estimated by nonlinear fitting as previously described. […] While Kd value estimates ranged from ~1 mM to > 10 mM (Fig. 3), the other 13 fragments reproduced HSQC perturbations observed in the primary NMR screen, and PCA clustered them in two groups distinct from the non-hits. […] Four fragments mainly affected residues […], R21, E25, and the side chain of Q69 located in a cleft between the N-loop and α-helix. Another eight fragments largely perturbed residues in the sY binding cleft (Fig. 1C), including I53, which is analogous to V49 of CXCL12, a critical residue in facilitating binding interactions with sY21 of its receptor CXCR4 [18].

`O=C(O)c1ccc(-c2ccccc2)s1` [CC10501]: the “Simultaneous binding of fragment pair” value in assay [1] is listed as “can occupy adjoining subsites within the same cleft on the CCL28 surface”. Moreover, the “Residues with largest / strong fragment-induced peak shifts” value in assay [2] was “I53, S20, and R21, CC10501 additionally yielded strong peak shifts for E25, Q69, and M66”. Moreover, in assay [3], the Kd is 6.6 mM.
Regarding `O=C(O)c1ccc2c3c(cccc13)CC2` [ZT0784], in assay [3], the Kd was 2.3 mM. In addition, in assay [3] (HSQC titration up to 6 mM, two potential sites (N-loop/α-helix cleft; sY binding cleft)), the “Binding site by chemical shift mapping” value is given as “perturbed residues located in both sites”.
`OCCCCn1cnc2cc(Cl)c(Cl)cc21` [SPB07625]: in assay [1], the “Simultaneous binding of fragment pair” value was “can occupy adjoining subsites within the same cleft on the CCL28 surface”. In addition, the Kd in assay [3] is 0.85 mM.
For the compound `Cc1cccc(C(=O)O)c1O` [ZT0733], the Kd in assay [3] was over 10 mM.
Consider `Sc1nc2cc(Cl)ccc2o1` [ZT0010], for which the Kd in assay [3] was 1.2 mM.
Regarding `O=C(O)c1cc2cc(C(F)(F)F)ccc2[nH]1` [TA01.A04.02A03], in assay [3], the Kd was over 10 mM.
The same measure, in the same setting: the same measure for `O=C(O)c1cc2ccccc2[nH]1` [ZT1669]: over 10 mM; for `O=c1cc(O)c2ccccc2o1` [ZT0262]: over 10 mM; for `O=C(O)c1cc2cc(F)ccc2[nH]1` [ZT0073]: over 10 mM.
Turning to `Cc1cc(Cl)ccc1S(=O)(=O)Nc1ccon1` [E2C04.04 C11.12C09], in assay [3], the Kd is over 10 mM.
For the compound `Cc1csc(C(C#N)C(=O)c2ccccc2F)n1` (centres unmarked) [E2C02.03 C11.09C10], in assay [3], the Kd is over 10 mM.
Consider `O=C(O)c1ccc(-c2cccs2)s1` [CC146001], for which, in assay [3], the Kd is 3.2 mM.
Regarding `O=C(O)/C=C/c1ccccc1` [ZT0754], in assay [3], the Kd was over 10 mM.
